Patent US20170190671A1, “BIS(ARYL)CATECHOL DERIVATIVES AS HERBICIDES” (E I DU PONT DE NEMOURS AND COMPANY, priority 2014, published 2017)

What was measured:
Type in all cases: in vivo
[1] = system: barnyardgrass (Echinochloa crus-galli); test: Test B flooded paddy; settings: Echinochloa crus-galli, 336 h; 250 g ai/ha, Flood, 13 to 15 days, scale 0 (no effect) to 100 (complete control); read-out: Plant response rating, Barnyardgrass
In short: (§1)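 Test compounds are applied straight into paddy water held 3 cm above the soil surface, with that flood maintained for the whole test. After 13 to 15 days in the greenhouse, each species is scored visually relative to controls.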

[2] = system: ducksalad (Heteranthera limosa); test: Test B flooded paddy; settings: Heteranthera limosa, 336 h; 250 g ai/ha, Flood, 13 to 15 days, scale 0 (no effect) to 100 (complete control); read-out: Plant response rating, Ducksalad
In short: as §1

rice (Oryza sativa) = test: Test B flooded paddy; settings: Oryza sativa, 336 h; 250 g ai/ha, Flood, 13 to 15 days, scale 0 (no effect) to 100 (complete control); read-out: Plant response rating, Rice
In short: as §1

[3] = system: sedge, umbrella (small-flower umbrella sedge, Cyperus difformis); test: Test B flooded paddy; settings: Cyperus difformis, 336 h; 250 g ai/ha, Flood, 13 to 15 days, scale 0 (no effect) to 100 (complete control); read-out: Plant response rating, Sedge, Umbrella
In short: as §1

[4] = system: Italian ryegrass (Lolium multiflorum); test: Test A preemergence; settings: Lolium multiflorum, pre-emergence, 240 h
In short: (§2)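 Greenhouse pot test, loam/sand soil. Formulation: non-phytotoxic solvent mix plus surfactant. Pre: directed spray onto soil after sowing. Post: plants at 1–2 leaf, 2–10 cm. Rated visually vs untreated controls at ~10 d, 0 (no effect) to 100 (complete control).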

[5] = system: barnyardgrass (Echinochloa crus-galli); test: Test A preemergence; settings: Echinochloa crus-galli, pre-emergence, 240 h
In short: as §2

[6] = system: giant foxtail (Setaria faberii); test: Test A preemergence; settings: Setaria faberi, pre-emergence, 240 h
In short: as §2

kochia (Kochia scoparia) [7] = test: Test A preemergence; settings: Bassia scoparia, pre-emergence, 240 h
In short: as §2

[8] = system: pigweed (Amaranthus retroflexus); test: Test A preemergence; settings: Amaranthus retroflexus, pre-emergence, 240 h
In short: as §2

[9] = system: ragweed (common ragweed, Ambrosia elatior); test: Test A preemergence; settings: Ambrosia artemisiifolia, pre-emergence, 240 h
In short: as §2

[10] = system: Italian ryegrass (Lolium multiflorum); test: Test A postemergence; settings: Lolium multiflorum, post-emergence, 240 h, 0 to 100 scale, read-out: Plant response rating, Ryegrass, Italian
In short: as §2

[11] = system: barnyardgrass (Echinochloa crus-galli); test: Test A postemergence; settings: Echinochloa crus-galli, post-emergence, 240 h, 0 to 100 scale, read-out: Plant response rating, Barnyardgrass
In short: as §2

[12] = system: blackgrass (Alopecurus myosuroides); test: Test A postemergence; settings: Alopecurus myosuroides, post-emergence, 240 h, 0 to 100 scale, read-out: Plant response rating, Blackgrass
In short: as §2

corn (Zea mays) = test: Test A postemergence; settings: Zea mays, post-emergence, 240 h, 0 to 100 scale
In short: as §2

[13] = system: galium (catchweed bedstraw, Galium aparine); test: Test A postemergence; settings: Galium, post-emergence, 240 h, 0 to 100 scale, read-out: Plant response rating, Galium
In short: as §2

[14] = system: giant foxtail (Setaria faberii); test: Test A postemergence; settings: Setaria faberi, post-emergence, 240 h, 0 to 100 scale, read-out: Plant response rating, Foxtail, Giant
In short: as §2

kochia (Kochia scoparia) [15] = test: Test A postemergence; settings: Bassia scoparia, post-emergence, 240 h, 0 to 100 scale, read-out: Plant response rating, Kochia
In short: as §2

[16] = system: pigweed (Amaranthus retroflexus); test: Test A postemergence; settings: Amaranthus retroflexus, post-emergence, 240 h, 0 to 100 scale, read-out: Plant response rating, Pigweed
In short: as §2

[17] = system: ragweed (common ragweed, Ambrosia elatior); test: Test A postemergence; settings: Ambrosia artemisiifolia, post-emergence, 240 h, 0 to 100 scale, read-out: Plant response rating, Ragweed
In short: as §2

[18] = system: wheat (Triticum aestivum); test: Test A postemergence; settings: Triticum aestivum, post-emergence, 240 h, 0 to 100 scale, read-out: Plant response rating, Wheat
In short: as §2

N#Cc1cccc(Oc2ncc(Br)cn2)c1Oc1ccc(Cl)cn1 [Compound 11]
pest or weed control at 250 g/ha [1]: 0% | pest or weed control at 250 g/ha [2]: 100% | plant injury at 250 g/ha (rice (Oryza sativa)): 0% | pest or weed control at 250 g/ha [3]: 85% | pest or weed control at 31 g/ha ([4]; 31 g ai/ha, 0 to 100 scale (0 no effect, 100 complete control), read-out: Ryegrass, Italian plant response rating): 0% | pest or weed control at 125 g/ha ([4]; 125 g ai/ha, 0 to 100 scale, read-out: Plant response rating, Ryegrass, Italian): 10% | pest or weed control at 500 g/ha ([4]; 500 g ai/ha, 0 to 100 scale, read-out: Plant response rating, Ryegrass, Italian): 90% | pest or weed control at 31 g/ha ([5]; 31 g ai/ha, 0 to 100 scale (0 no effect, 100 complete control), read-out: Barnyardgrass plant response rating): 0% | pest or weed control at 125 g/ha ([5]; 125 g ai/ha, 0 to 100 scale, read-out: Plant response rating, Barnyardgrass): 80% | pest or weed control at 500 g/ha ([5]; 500 g ai/ha, 0 to 100 scale, read-out: Plant response rating, Barnyardgrass): 100% | pest or weed control at 31 g/ha ([6]; 31 g ai/ha, 0 to 100 scale (0 no effect, 100 complete control), read-out: Foxtail, Giant plant response rating): 20% | pest or weed control at 125 g/ha ([6]; 125 g ai/ha, 0 to 100 scale, read-out: Plant response rating, Foxtail, Giant): 100% | pest or weed control at 500 g/ha ([6]; 500 g ai/ha, 0 to 100 scale, read-out: Plant response rating, Foxtail, Giant): 100% | pest or weed control at 31 g/ha (kochia (Kochia scoparia) [7]; 31 g ai/ha, 0 to 100 scale (0 no effect, 100 complete control), read-out: Kochia plant response rating): 10% | pest or weed control at 125 g/ha (kochia (Kochia scoparia) [7]; 125 g ai/ha, 0 to 100 scale, read-out: Plant response rating, Kochia): 75% | pest or weed control at 500 g/ha (kochia (Kochia scoparia) [7]; 500 g ai/ha, 0 to 100 scale, read-out: Plant response rating, Kochia): 100% | pest or weed control at 31 g/ha ([8]; 31 g ai/ha, 0 to 100 scale (0 no effect, 100 complete control), read-out: Pigweed plant response rating): 90% | pest or weed control at 125 g/ha ([8]; 125 g ai/ha, 0 to 100 scale, read-out: Plant response rating, Pigweed): 100% | pest or weed control at 500 g/ha ([8]; 500 g ai/ha, 0 to 100 scale, read-out: Plant response rating, Pigweed): 100% | pest or weed control at 31 g/ha ([9]; 31 g ai/ha, 0 to 100 scale (0 no effect, 100 complete control), read-out: Ragweed plant response rating): 0% | pest or weed control at 125 g/ha ([9]; 125 g ai/ha, 0 to 100 scale, read-out: Plant response rating, Ragweed): 0% | pest or weed control at 500 g/ha ([9]; 500 g ai/ha, 0 to 100 scale, read-out: Plant response rating, Ragweed): 10% | pest or weed control at 31 g/ha ([10]; 31 g ai/ha): 0% | pest or weed control at 125 g/ha ([10]; 125 g ai/ha): 25% | pest or weed control at 500 g/ha ([10]; 500 g ai/ha): 90% | pest or weed control at 31 g/ha ([11]; 31 g ai/ha): 0% | pest or weed control at 125 g/ha ([11]; 125 g ai/ha): 80% | pest or weed control at 500 g/ha ([11]; 500 g ai/ha): 100% | pest or weed control at 31 g/ha ([12]; 31 g ai/ha): 10% | pest or weed control at 125 g/ha ([12]; 125 g ai/ha): 90% | pest or weed control at 500 g/ha ([12]; 500 g ai/ha): 100% | Corn plant response rating (crop injury, 0 = no effect, 100 = complete kill) at 31 g/ha (corn (Zea mays); 31 g ai/ha): 10% | Corn plant response rating (crop injury, 0 = no effect, 100 = complete kill) at 125 g/ha (corn (Zea mays); 125 g ai/ha): 30% | Corn plant response rating (crop injury, 0 = no effect, 100 = complete kill) at 500 g/ha (corn (Zea mays); 500 g ai/ha): 100% | pest or weed control at 31 g/ha ([13]; 31 g ai/ha): 70% | pest or weed control at 125 g/ha ([13]; 125 g ai/ha): 100% | pest or weed control at 500 g/ha ([13]; 500 g ai/ha): 100% | pest or weed control at 31 g/ha ([14]; 31 g ai/ha): 0% | pest or weed control at 125 g/ha ([14]; 125 g ai/ha): 95% | pest or weed control at 500 g/ha ([14]; 500 g ai/ha): 100% | pest or weed control at 31 g/ha (kochia (Kochia scoparia) [15]; 31 g ai/ha): 40% | pest or weed control at 125 g/ha (kochia (Kochia scoparia) [15]; 125 g ai/ha): 95% | pest or weed control at 500 g/ha (kochia (Kochia scoparia) [15]; 500 g ai/ha): 100% | pest or weed control at 31 g/ha ([16]; 31 g ai/ha): 100% | pest or weed control at 125 g/ha ([16]; 125 g ai/ha): 100% | pest or weed control at 500 g/ha ([16]; 500 g ai/ha): 100% | pest or weed control at 31 g/ha ([17]; 31 g ai/ha): 0% | pest or weed control at 125 g/ha ([17]; 125 g ai/ha): 10% | pest or weed control at 500 g/ha ([17]; 500 g ai/ha): 10% | plant injury at 31 g/ha ([18]; 31 g ai/ha): 20% | plant injury at 125 g/ha ([18]; 125 g ai/ha): 50% | plant injury at 500 g/ha ([18]; 500 g ai/ha): 90%
